pIC50: −log10 of the molar value.
Each compound was assayed against T1, α4β7 integrin (Homo sapiens, UniProt P13612+P26010) (assay: MAdCAM-1/α4β7 integrin binding inhibitory activity evaluation test (RPMI-8866 cells binding to MAdCAM-1/Fc)). Conditions: recombinant mouse MAdCAM-1/Fc, no serum.
T1 construct: a cell line RPMI-8866, which is known to express α4β7 integrin; endogenous in cells; host or cells: RPMI-8866 (human B cell line)
T1 sequence (P13612 34-1032): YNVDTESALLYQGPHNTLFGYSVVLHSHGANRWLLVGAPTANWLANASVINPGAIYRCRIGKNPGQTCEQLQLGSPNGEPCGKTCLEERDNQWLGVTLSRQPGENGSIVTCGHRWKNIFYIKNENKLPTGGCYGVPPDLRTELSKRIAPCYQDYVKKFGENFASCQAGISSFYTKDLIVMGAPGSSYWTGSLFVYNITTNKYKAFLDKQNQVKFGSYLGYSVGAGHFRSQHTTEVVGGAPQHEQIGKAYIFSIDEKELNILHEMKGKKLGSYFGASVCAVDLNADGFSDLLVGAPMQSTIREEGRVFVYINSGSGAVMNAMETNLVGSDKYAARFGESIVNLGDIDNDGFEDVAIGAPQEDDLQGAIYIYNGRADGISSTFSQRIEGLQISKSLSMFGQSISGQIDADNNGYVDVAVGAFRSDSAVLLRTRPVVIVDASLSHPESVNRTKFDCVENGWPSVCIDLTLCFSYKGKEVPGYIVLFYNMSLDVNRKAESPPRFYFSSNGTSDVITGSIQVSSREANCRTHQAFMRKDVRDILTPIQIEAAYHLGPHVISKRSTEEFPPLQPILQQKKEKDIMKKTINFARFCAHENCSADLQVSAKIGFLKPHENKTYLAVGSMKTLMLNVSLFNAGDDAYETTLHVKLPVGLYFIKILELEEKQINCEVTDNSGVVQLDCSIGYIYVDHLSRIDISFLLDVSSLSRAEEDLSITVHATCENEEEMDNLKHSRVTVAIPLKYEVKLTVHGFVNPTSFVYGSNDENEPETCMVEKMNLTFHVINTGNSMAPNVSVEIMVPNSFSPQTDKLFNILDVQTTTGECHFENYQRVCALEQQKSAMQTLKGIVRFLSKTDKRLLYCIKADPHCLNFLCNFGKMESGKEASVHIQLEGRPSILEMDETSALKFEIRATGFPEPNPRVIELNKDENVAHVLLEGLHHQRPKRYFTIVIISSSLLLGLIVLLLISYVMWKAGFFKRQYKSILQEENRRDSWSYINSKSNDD
T1 sequence (P26010 20-798): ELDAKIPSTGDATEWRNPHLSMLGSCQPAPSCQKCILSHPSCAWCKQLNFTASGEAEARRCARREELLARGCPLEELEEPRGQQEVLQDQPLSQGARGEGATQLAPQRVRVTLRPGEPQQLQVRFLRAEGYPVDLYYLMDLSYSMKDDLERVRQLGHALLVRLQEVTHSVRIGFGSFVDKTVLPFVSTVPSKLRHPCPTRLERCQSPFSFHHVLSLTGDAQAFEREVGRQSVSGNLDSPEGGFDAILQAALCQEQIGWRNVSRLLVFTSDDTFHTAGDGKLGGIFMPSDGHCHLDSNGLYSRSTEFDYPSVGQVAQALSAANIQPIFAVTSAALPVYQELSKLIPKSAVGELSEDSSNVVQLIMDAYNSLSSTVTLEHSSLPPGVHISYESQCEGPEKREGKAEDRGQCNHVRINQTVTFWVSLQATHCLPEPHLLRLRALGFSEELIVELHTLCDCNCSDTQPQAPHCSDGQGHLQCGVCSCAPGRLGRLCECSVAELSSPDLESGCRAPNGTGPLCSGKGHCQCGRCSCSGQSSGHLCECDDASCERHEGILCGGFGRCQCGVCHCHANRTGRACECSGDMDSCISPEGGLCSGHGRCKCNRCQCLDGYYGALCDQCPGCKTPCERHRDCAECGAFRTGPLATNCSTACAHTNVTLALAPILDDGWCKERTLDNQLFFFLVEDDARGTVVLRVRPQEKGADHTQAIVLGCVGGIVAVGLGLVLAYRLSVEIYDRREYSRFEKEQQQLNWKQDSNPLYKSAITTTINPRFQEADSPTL
Type: cell-based
Protocol: (2) MAdCAM-1/α4β7 Integrin Binding Inhibitory Activity Evaluation Test
Each test substance was measured in terms of an ability to inhibit the MAdCAM-1 binding of a human B cell line, namely, a cell line RPMI-8866, which is known to express α4β7 integrin.
A solution of recombinant mouse MAdCAM-1/Fc (R&D Systems, Inc.) (0.75 μg/mL) diluted with a buffer A (carbonate buffer, pH 9.6) was added in an amount of 50 μL/well to a 96-well microtiter plate, followed by incubation at 4° C. overnight. After the plate was washed with PBS once, 150 μL/well of Block Ace (Snow Brand Milk Products Co., Ltd.) was added, followed by incubation at room temperature for 2 hours. After removal, the plate was washed with PBS once.
Then, 100 μL of the RPMI-8866 cells (2×10^6 cells/mL) and 100 μL of the test substance at each of various concentrations diluted with a binding buffer (DMEM containing 40 mM HEPES, 0.2% BSA, and 4 mM MnCl2) were added on the plate coated with the MAdCAM-1/Fc (5×10^5 cells/well), followed by incubation at 30° C. for 15 to 60 minutes. After the cells were bound to the wells, the plate was washed with PBS to remove unbound cells. A buffer C (PBS containing 1.5% Triton X-100) in an amount 50 μL/well was added to the plate to lyse the bound RPMI-8866 cells. After 30 μL of a substrate buffer (Promega, CytoTox 96 Non-Radioactive Cytotoxicity Assay) was added to 30 μL of the cell lysate, a reaction was allowed to proceed at room temperature in the dark for 30 minutes. After 30 μL of a stop solution (Promega, CytoTox 96 Non-Radioactive Cytotoxicity Assay) was added to each, and then an absorbance at 490 nm was measured using a plate reader. The absorbance obtained here represents a detection result of an activity of lactate dehydrogenase (LDH) eluted in the supernatant of each well, that is, the absorbance is proportional to the number of RPMI-8866 cells bound to the MAdCAM-1 and thus remaining on the plate. The test was performed in duplicate. Provided that the absorbance of the well containing no test substance was 100%, a cell binding rate with the test substance at each of the various concentrations was figured out, and a concentration IC50 which brought about 50% binding inhibition was calculated.

Row | SMILES | pIC50
1 | Cn1c(=O)n(-c2ccc(C[C@H](NC(=O)c3cc(F)c(NS(=O)(=O)c4ccc(NC(=O)NC(C)(C)C)cc4)cc3F)C(=O)O)cc2)c(=O)c2ccncc21 [Compound A5] | 8.64
2 | Cc1c(C)n(C)c(=O)n(-c2ccc(C[C@H](NC(=O)c3cc(F)c(NS(=O)(=O)c4ccc(NC(=O)C5(c6ccccc6)CC5)cc4)cc3F)C(=O)O)cc2)c1=O [Compound A30] | 9.24
3 | Cc1cn(C)c(=O)n(-c2ccc(C[C@H](NC(=O)c3cc(F)c(NS(=O)(=O)c4ccc(NC(=O)C(C)(C)CO)cc4)cc3F)C(=O)O)cn2)c1=O [Compound A63] | 8.62
4 | Cn1c2c(c(=O)n(-c3ccc(C[C@H](NC(=O)c4cc(F)c(NS(=O)(=O)c5ccc(NC(=O)C(C)(C)C)cc5)cc4F)C(=O)O)cn3)c1=O)CCCC2 [Compound A52] | 9.15
5 | Cc1cn(C)c(=O)n(-c2ccc(C[C@H](NC(=O)c3cc(F)c(NS(=O)(=O)c4ccc(NC(=O)C#CC(C)(C)C)cc4)cc3F)C(=O)O)cn2)c1=O [Compound A68] | 8.30
6 | Cc1cn(C)c(=O)n(-c2ccc(C[C@H](NC(=O)c3cc(F)c(NS(=O)(=O)c4ccc(NC(=O)C(C)C)cc4)cc3F)C(=O)O)cn2)c1=O [Compound A71] | 8.49
7 | Cn1c2c(c(=O)n(-c3ccc(C[C@H](NC(=O)c4cc(F)c(NS(=O)(=O)c5ccc(NC(=O)C(C)(C)C)cc5)cc4F)C(=O)O)cn3)c1=O)CCOC2 [Compound A40] | 9.13
8 | Cc1cn(C)c(=O)n(-c2ccc(C[C@H](NC(=O)c3cc(F)c(NS(=O)(=O)c4ccc(NC(=O)C(C)(C)C)s4)cc3F)C(=O)O)cn2)c1=O [Compound A73] | 8.66
9 | Cn1c(=O)n(-c2ccc(C[C@H](NC(=O)c3cc(F)c(NS(=O)(=O)c4ccc(NC(=O)C5(O)CC5)cc4)cc3F)C(=O)O)cc2)c(=O)c2ccncc21 [Compound A23] | 9.00
10 | Cn1ccc(=O)n(-c2ccc(C[C@H](NC(=O)c3cc(F)c(NS(=O)(=O)c4ccc(NC(=O)C5CCCC5)cc4)cc3F)C(=O)O)cn2)c1=O [Compound A64] | 8.26
11 | Cc1c(C)n(C)c(=O)n(-c2ccc(C[C@H](NC(=O)c3cc(F)c(NS(=O)(=O)c4ccc(N(C)C(=O)C(C)(C)C)cc4)cc3F)C(=O)O)cc2)c1=O [Compound A35] | 8.01
12 | Cn1ccc(=O)n(-c2ccc(C[C@H](NC(=O)c3cc(F)c(NS(=O)(=O)c4ccc(NC(=O)C(C)(C)C)cc4)cc3F)C(=O)O)cc2)c1=O [Compound A42] | 9.11
13 | Cn1ccc(=O)n(-c2ccc(C[C@H](NC(=O)c3cc(F)c(NS(=O)(=O)c4ccc(NC(=O)C(C)(C)CO)cc4)cc3F)C(=O)O)cn2)c1=O [Compound A62] | 8.31

Now from value to compound:

Row | pIC50 | SMILES
14 | 9.28 | COC1(C(=O)Nc2ccc(S(=O)(=O)Nc3cc(F)c(C(=O)N[C@@H](Cc4ccc(-n5c(=O)c6ccncc6n(C)c5=O)cc4)C(=O)O)cc3F)cc2)CC1 [Compound A16]
15 | 9.59 | Cn1c(=O)n(-c2ccc(C[C@H](NC(=O)c3cc(F)c(NS(=O)(=O)c4ccc(NC(=O)C(C)(C)C)cc4)cc3F)C(=O)O)cc2)c(=O)c2ccncc21 [Compound A1, (2S)-2-[[4-[[4-(2,2-dimethylpropanoylamino)phenyl]sulfonylamino]-2,5-difluoro-benzoyl]amino]-3-[4-(1-methyl-2,4-dioxo-pyrido[3,4-d]pyrimidin-3-yl)phenyl]propanoic acid]
16 | 9.64 | Cn1c(=O)n(-c2ccc(C[C@H](NC(=O)c3cc(F)c(NS(=O)(=O)c4ccc(NC(=O)C(C)(C)C)cc4)cc3F)C(=O)O)cn2)c(=O)c2ccncc21 [Compound A26]
17 | 9.32 | Cn1c2c(c(=O)n(-c3ccc(C[C@H](NC(=O)c4cc(F)c(NS(=O)(=O)c5ccc(NC(=O)C(C)(C)C)cc5)cc4F)C(=O)O)cn3)c1=O)COCC2 [Compound A44]
18 | 9.35 | Cn1c2c(c(=O)n(-c3ccc(C[C@H](NC(=O)c4cc(F)c(NS(=O)(=O)c5ccc(NC(=O)C(C)(C)C)cc5)cc4F)C(=O)O)cc3)c1=O)COCC2 [Compound A33]
19 | 9.25 | Cc1c(C)n(C)c(=O)n(-c2ccc(C[C@H](NC(=O)c3cc(F)c(NS(=O)(=O)c4ccc(NC(=O)C(C)(C)C)cc4)cc3F)C(=O)O)cn2)c1=O [Compound A28]

Reference: patent publication US10562898B2, “Substituted benzenesulfonamides as inhibitors of alpha-4 beta-7 integrin activity” (EA PHARMA CO., LTD., priority 2016, dated 2020)
